The target in the first assay is T1, thrombopoietin (TPO) receptor (Homo sapiens, UniProt P40238).
T1 construct: expressed in transfected cells; host or cells: human leukemic cell line UT7/EPO, stably transformed (UT7/EPO-mpl)
T1 sequence (P40238 26-635): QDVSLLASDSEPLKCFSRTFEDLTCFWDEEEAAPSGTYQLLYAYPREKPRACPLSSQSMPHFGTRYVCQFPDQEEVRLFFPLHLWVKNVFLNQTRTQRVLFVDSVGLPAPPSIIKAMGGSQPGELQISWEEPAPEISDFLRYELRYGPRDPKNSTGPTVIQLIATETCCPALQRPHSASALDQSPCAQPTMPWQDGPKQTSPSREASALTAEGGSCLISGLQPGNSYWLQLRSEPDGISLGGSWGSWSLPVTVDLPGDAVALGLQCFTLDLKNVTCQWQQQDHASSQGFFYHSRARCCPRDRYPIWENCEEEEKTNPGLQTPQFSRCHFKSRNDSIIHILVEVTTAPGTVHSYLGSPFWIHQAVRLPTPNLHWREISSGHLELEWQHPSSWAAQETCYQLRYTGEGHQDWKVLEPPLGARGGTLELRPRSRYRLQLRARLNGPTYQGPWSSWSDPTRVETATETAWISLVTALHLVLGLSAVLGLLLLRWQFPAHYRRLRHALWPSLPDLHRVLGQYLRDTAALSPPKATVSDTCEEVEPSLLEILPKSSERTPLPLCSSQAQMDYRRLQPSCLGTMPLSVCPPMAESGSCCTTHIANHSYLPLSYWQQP
Put plainly: Stimulation of proliferation of TPO-dependent cell line UT7/EPO-mpl (WST-8). The assay is classed as cell-based. Conditions: FIG. 1; concentration-dependent; 4 days incubation, WST-8 absorbance at 450 nm. The method, then: The reactivity of the compound of Synthetic Example 3 of the present invention with thrombopoietin (TPO) receptor was assayed using a human leukemic cell line, UT7/EPO-mpl.
(§1) UT7/EPO-mpl is a stable transformed cell line obtained by introducing into human leukemic cell line UT7/EPO a vector that induces expression of human TPO receptor (c-mp1) under control of a cytomegaloviral promoter by the method of Takatoku et al. (J. Biol. Chem., 272:7259-7263 (1997)). […] These two cell lines were subcultured in Iscove's modified Dulbecco's medium (IMDM; GIBCO) containing 10% fetal bovine serum (FBS; TRACE SCIENTIFIC, Thermo Electron or BioWest) using a CO2 incubator (5% CO2, 37° C.)
(§2) The subcultured cells described above were washed twice with phosphate buffered saline (PBS) and suspended in IMDM containing 10% FBS at a cell density of 6×10^4 cells/ml. The cell suspension was transferred to a 96-well tissue culture plate (CORNING) in 100 μl aliquots. Then either TPO (PeproTech EC) or the compound of Synthetic Example 3 dissolved in dimethyl sulfoxide (DMSO) was diluted 83-fold with IMDM containing 10% FBS and added to the aforementioned cell suspension in 20 μl aliquots. The suspension was incubated in a CO2 incubator (5% Co2, 37° C.) for 4 days. Cell proliferation was assayed using WST-8 reagent (Kishida Chemical Co., Ltd.) according to instructions by the manufacturer. A 10 μl aliquot of 5 mM WST-8 reagent solution was added to each well of the tissue culture plate, and the plate was incubated at 37° C. for 4 h. The formazan pigment generated was detected by measuring the absorbance at 450 nm with a 96-well microplate reader (Nihon Molecular Devices, Spectramax 190).
The compounds of the following Synthetic Examples were tested according to the method of Assay Example 1 to determine the concentration of each compound that yields a growth rate corresponding to 50% of the growth of human leukemic cell line UT-7/EPO-mpl observed in the presence of 10 ng/ml TPO (EC50).
Turning to `CC(=NNC(=O)c1ccc(C(=O)O)cc1)c1nn(C)c(-c2ccc(C(C)(C)C)cc2)c1O` [Synthetic Example 3, 4-[(2-{1-[5-(4-tert-butylphenyl)-4-hydroxy-1-methyl-1H-pyrazol-3-yl]ethylidene}hydrazino)carbonyl]benzoic acid], the “proliferation of TPO-responsive UT7/EPO-mpl cells” value was “stimulated”.

Still in this assay, the particulars now being: concentration that yields a growth rate corresponding to 50% of the growth of UT-7/EPO-mpl observed in the presence of 10 ng/ml TPO.
In general, EC50 refers to the concentration that produces a half-maximal response. As for `C/C(=N\NC(=S)Nc1cccc(C(=O)O)c1)c1csc(-c2ccc(C)c(C)c2)c1O` [compound 136], the EC50 was 7.05 nM.

`C/C(=N\NC(=S)Nc1ccc2[nH]c(=O)[nH]c2c1)c1csc(-c2ccc(Cl)c(Cl)c2)c1O` [compound 154]: the EC50 was 5.69 nM.

With `C/C(=N\NC(=S)Nc1ccc2cn[nH]c2c1)c1nn(C)c(-c2ccc(Cl)c(Cl)c2)c1O` [compound 155], the EC50 was 11.2 nM.

Regarding `CC(=O)Nc1cccc(NC(=S)N/N=C(\C)c2nn(C)c(-c3ccc(C(F)(F)F)cc3)c2O)c1` [compound 157], the EC50 was 6.32 nM.

Turning to `C/C(=N\NC(=S)Nc1ccccc1CC(N)=O)c1nn(C)c(-c2ccc(C(F)(F)F)cc2)c1O` [compound 161], the EC50 was 7.95 nM.

Regarding `C/C(=N\NC(=S)Nc1cc(C(=O)O)cc([N+](=O)[O-])c1)c1nn(C)c(-c2ccc(Cl)c(Cl)c2)c1O` [compound 164], the EC50 was 5.73 nM.

On to `C/C(=N\NC(=O)c1ccc2cc(C(=O)O)ccc2c1)c1csc(-c2ccc(Cl)c(Cl)c2)c1O` [compound 169], for which the EC50 is 7.41 nM.

For the compound `C/C(=N\NC(=O)c1ccc(N)c(N)c1)c1csc(-c2ccc(Cl)c(Cl)c2)c1O` [compound 176], the EC50 was 36.8 nM.

Take `C/C(=N\NC(=O)c1ccc(C(=O)NC2CCCC2)s1)c1csc(-c2ccc(Cl)c(Cl)c2)c1O` [compound 178]: the EC50 was 6.51 nM.

`C/C(=N\NC(=O)c1ccc(C(N)=O)s1)c1csc(-c2ccc(Cl)c(Cl)c2)c1O` [compound 179]: the EC50 is 6.6 nM.

On to `C/C(=N\NC(=O)c1sc(N)nc1C(F)(F)F)c1csc(-c2ccc(Cl)c(Cl)c2)c1O` [compound 181], for which the EC50 was 5.65 nM.

Regarding `C/C(=N\NC(=O)c1ccc(C(=O)O)c([N+](=O)[O-])c1)c1csc(-c2ccc(C)c(C)c2)c1O` [compound 212], the EC50 is 0.529 nM.

As to `C/C(=N\NC(=O)c1ccc(C(=O)NCCCN(C)C)s1)c1csc(-c2ccc(Cl)c(Cl)c2)c1O` [compound 226], the EC50 is 4.08 nM.

On to `C/C(=N\NC(=O)c1ccc(C(=O)O)cc1N)c1nn(C)c(-c2ccc(C(F)(F)F)cc2)c1O` [compound 228], for which the EC50 is 1.56 nM.

In the next assay the test system is UT7/EPO cells. Put plainly: Proliferation of mother cell line UT7/EPO expressing no TPO receptor (WST-8). In kind it is cell-based, human. The note with it: FIG. 2. As to the method: as §1
as §2, with “A 10 μl aliquot of 5 mM WST-8 reagent solution was added to each well of the tissue culture plate, and the plate was incubated at 37° C. for 4 h.” left out
(Formazan colour is commonly taken as a measure of viable cells.)
On to `CC(=NNC(=O)c1ccc(C(=O)O)cc1)c1nn(C)c(-c2ccc(C(C)(C)C)cc2)c1O` [Synthetic Example 3, 4-[(2-{1-[5-(4-tert-butylphenyl)-4-hydroxy-1-methyl-1H-pyrazol-3-yl]ethylidene}hydrazino)carbonyl]benzoic acid], for which the “effect on proliferation of UT7/EPO, the mother cell line” value is listed as “no effect”.

A further assay deals with Human bone marrow CD34+ cells. Put plainly: Megakaryocyte colony stimulating activity (megakaryocyte colony forming method). In kind it is cell-based. Conditions: Concentration 0.3 μg/ml; 11 days; colonies of at least 8 stained megakaryocyte cells. The method, then:
The action of the compound of Synthetic Example 2 of the present invention on the proliferation, differentiation and maturation of megakaryocyte cells was measured by the megakaryocyte colony forming method using human bone marrow cells. Human bone marrow CD34^+ cells (Cambrex Bio Science Walkersville) were incubated on 2-well chamber slide for 11 days in a CO2 incubator (5% CO2, 37° C.) using MegaCult™-C (StemCell Technologies) containing 0.1% (v/v) of the compound of Synthetic Example 2 dissolved in DMSO. After dehydration and fixation, the cells were stained with an anti-glycoprotein IIb/IIIa antibody in accordance with the instruction by the manufacturer. The colonies consisting of at least 8 stained megakaryocyte cells in each well was counted under a microscope. The megakaryocyte colony counts of duplicate or more assays were averaged.
With `CC(=NNC(=S)Nc1ccc(C(=O)O)cc1)c1nn(C)c(-c2ccc(Cl)c(Cl)c2)c1O` [Synthetic Example 2, 4-{[(2-{1-[5-(3,4-dichlorophenyl)-4-hydroxy-1-methyl-1H-pyrazol-3-yl]ethylidene}hydrazino)carbonothioyl]amino}benzoic acid], the “Megakaryocyte colony Count” value was found to be 25.

The same assay, now with this note: Concentration 1 μg/ml; 11 days; colonies of at least 8 stained megakaryocyte cells.
In the case of `CC(=NNC(=S)Nc1ccc(C(=O)O)cc1)c1nn(C)c(-c2ccc(Cl)c(Cl)c2)c1O` [Synthetic Example 2, 4-{[(2-{1-[5-(3,4-dichlorophenyl)-4-hydroxy-1-methyl-1H-pyrazol-3-yl]ethylidene}hydrazino)carbonothioyl]amino}benzoic acid], the “Megakaryocyte colony Count” value is listed as 48.

The values are drawn from patent US7576115B2, “Heterocyclic compounds and thrombopoietin receptor activators” (Nissan Chemical Industries, Ltd., priority 2003, dated 2009).
